Read-outs that look alike come from different tables or passages of the source.
What was measured:
[1] = biological target: T1, 5HT2C receptors (Homo sapiens, UniProt P28335); assay: Human 5-HT2C functional high throughput screening assay in CHO-K1 cells (calcium flux); type: cell-based; set-up: expressed in transfected cells; host or cells: CHO-K1 cells; settings: for Emax: CHO-K1, 5-HT2C, maximum functional response as percentage relative to the effect of serotonin; for EC50: CHO-K1 cells, calcium flux
T1 sequence (P28335 33-458): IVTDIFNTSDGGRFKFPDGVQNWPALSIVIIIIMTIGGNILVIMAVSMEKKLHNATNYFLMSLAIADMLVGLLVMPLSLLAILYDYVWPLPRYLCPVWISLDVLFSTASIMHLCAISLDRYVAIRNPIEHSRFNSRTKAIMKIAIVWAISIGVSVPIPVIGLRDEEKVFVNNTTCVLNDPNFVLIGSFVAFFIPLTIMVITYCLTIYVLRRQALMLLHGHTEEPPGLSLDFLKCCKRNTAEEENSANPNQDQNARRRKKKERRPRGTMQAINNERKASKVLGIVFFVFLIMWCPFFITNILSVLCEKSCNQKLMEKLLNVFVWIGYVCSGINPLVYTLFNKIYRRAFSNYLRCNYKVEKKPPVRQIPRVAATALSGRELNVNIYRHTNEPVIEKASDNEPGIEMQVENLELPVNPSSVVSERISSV
Procedure, shortened: (§1)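 Agonism is measured as intracellular calcium increase in receptor-overexpressing CHO-K1 cells, read by FLIPR at 25 °C. Responses are expressed relative to serotonin, with EC50 and Emax derived from a 4-parameter logistic curve over 6 concentrations starting at 10 μM.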

[2] = biological target: T2, 5HT2B receptors (Homo sapiens, UniProt P41595); assay: Human 5-HT2B functional high throughput screening assay in CHO-K1 cells (calcium flux); type: cell-based; settings: for EC50: CHO-K1 cells, calcium flux
T2 construct: expressed in transfected cells; host or cells: CHO-K1 cells
T2 sequence (P41595 whole entry): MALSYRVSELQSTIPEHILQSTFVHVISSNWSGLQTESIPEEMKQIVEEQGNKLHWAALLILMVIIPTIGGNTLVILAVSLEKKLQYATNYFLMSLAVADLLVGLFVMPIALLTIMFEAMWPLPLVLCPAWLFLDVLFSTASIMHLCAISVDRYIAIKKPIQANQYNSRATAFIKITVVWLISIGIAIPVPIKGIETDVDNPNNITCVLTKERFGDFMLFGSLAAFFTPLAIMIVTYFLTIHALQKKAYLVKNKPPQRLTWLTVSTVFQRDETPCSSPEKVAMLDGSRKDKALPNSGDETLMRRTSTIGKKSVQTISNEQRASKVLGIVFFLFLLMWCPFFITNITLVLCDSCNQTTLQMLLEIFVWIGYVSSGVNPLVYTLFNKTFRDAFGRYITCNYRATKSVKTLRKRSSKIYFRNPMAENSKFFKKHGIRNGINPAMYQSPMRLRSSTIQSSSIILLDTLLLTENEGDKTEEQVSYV
Procedure, shortened: as §1

[3] = 5-HT2C agonist activity, read-out: EC50
[4] = 5-HT2B agonist activity, read-out: EC50
[5] = 5-HT2B, maximum functional response as percentage relative to the effect of serotonin

SMILES | Emax [1] | EC50 ([1]; EC50, 5-HT2C agonist activity) | Emax ([2]; CHO-K1) | EC50 ([2]; EC50, 5-HT2B agonist activity) | EC50 [1, 3] | EC50 [2, 4] | Emax ([1]; read-out: Emax) | Emax [2, 5]
COc1ccc2c(c1)OCC[C@H]1CNC[C@H]21 (relative stereo) [Example 280, Trans-8-methoxy-2,3,3a,4,5,10b-hexahydro-1H-[1]benzoxepino[4,5-c]pyrrole] | 100% | 90 nM | 60% | 100 nM |  |  |  | 
Fc1cccc2c1OCC[C@H]1CNC[C@H]21 (relative stereo) [Example 281, Trans-7-fluoro-2,3,3a,4,5,10b-hexahydro-1H-[1]benzoxepino[4,5-c]pyrrole] | 100% | 8 nM | 90% | 100 nM |  |  |  | 
FC(F)(F)Oc1ccc2c(c1)[C@H]1CNC[C@@H]1CCO2 (relative stereo) [Example 282, Trans-9-(trifluoromethoxy)-2,3,3a,4,5,10b-hexahydro-1H-[1]benzoxepino[4,5-c]pyrrole] | 70% |  | 30% |  | 900 nM | 200 nM |  | 
Fc1cc(F)c2c(c1)[C@H]1CNC[C@@H]1CCO2 (relative stereo) [Example 283, Trans-7,9-difluoro-2,3,3a,4,5,10b-hexahydro-1H-[1]benzoxepino[4,5-c]pyrrole] | 80% | 800 nM | 50% | 60 nM |  |  |  | 
Fc1ccc2c(c1)[C@@H]1CNC[C@@H]1CCO2 (relative stereo) [Example 284, Cis-9-fluoro-2,3,3a,4,5,10b-hexahydro-1H-[1]benzoxepino[4,5-c]pyrrole] | 85% | 400 nM | 55% | 10 nM |  |  |  | 
FC(F)(F)Oc1cccc2c1OCC[C@H]1CNC[C@H]21 (relative stereo) [Example 285, Trans-7-(trifluoromethoxy)-2,3,3a,4,5,10b-hexahydro-1H-[1]benzoxepino[4,5-c]pyrrole] | 100% | < 0.1 nM | 90% | 9 nM |  |  |  | 
Fc1ccc2c(c1)[C@H]1CNC[C@@H]1CCO2 (relative stereo) [Example 286, Trans-9-fluoro-2,3,3a,4,5,10b-hexahydro-1H-[1]benzoxepino[4,5-c]pyrrole] | 90% | 300 nM | 60% | 50 nM |  |  |  | 
Fc1cccc2c1[C@H]1CNC[C@@H]1CCO2 (relative stereo) [Example 287, Trans-10-fluoro-2,3,3a,4,5,10b-hexahydro-1H-[1]benzoxepino[4,5-c]pyrrole] | 95% | 50 nM | 40% | 300 nM |  |  |  | 
Fc1ccc(F)c2c1OCC[C@H]1CNC[C@@H]21 (relative stereo) [Example 288, Cis-7,10-difluoro-2,3,3a,4,5,10b-hexahydro-1H-[1]benzoxepino[4,5-c]pyrrole] | 90% | 40 nM | 50% | 700 nM |  |  |  | 
Fc1ccc(F)c2c1OCC[C@H]1CNC[C@H]21 (relative stereo) [Example 289, Trans-7,10-difluoro-2,3,3a,4,5,10b-hexahydro-1H-[1]benzoxepino[4,5-c]pyrrole] | 90% | 7 nM | 95% | 100 nM |  |  |  | 
Cc1ccc2c(c1)[C@H]1CNC[C@@H]1CCO2 (relative stereo) [Example 290, Trans-9-methyl-2,3,3a,4,5,10b-hexahydro-1H-[1]benzoxepino[4,5-c]pyrrole] | 80% | 100 nM | 35% | 20 nM |  |  |  | 
Cc1cccc2c1OCC[C@H]1CNC[C@H]21 (relative stereo) [Example 291, Trans-7-methyl-2,3,3a,4,5,10b-hexahydro-1H-[1]benzoxepino[4,5-c]pyrrole] | 95% | 0.4 nM | 60% | 10 nM |  |  |  | 
Clc1cccc2c1OCC[C@H]1CNC[C@@H]21 (relative stereo) [Example 295, Cis-7-chloro-2,3,3a,4,5,10b-hexahydro-1H-[1]benzoxepino[4,5-c]pyrrole] | 100% | 10 nM | 40% | 60 nM |  |  |  | 
CC(=O)c1ccc(-c2ccc3c(c2)C(=O)NC[C@@H]2CNC[C@@H]32)s1 (relative stereo) [Example 296, Trans-8-(5-acetyl-2-thienyl)-2,3,3a,4,5,10b-hexahydropyrrolo[3,4-d][2]benzazepin-6(1H)-one] |  |  |  |  | 1 nM | > 10000 nM | 100% | inactive
CC(C)CNc1ccc2c(c1)C(=O)NC[C@@H]1CN(C)C[C@@H]21 (relative stereo) [Example 297, Trans-8-(isobutylamino)-2-methyl-2,3,3a,4,5,10b-hexahydropyrrolo[3,4-d][2]benzazepin-6(1H)-one] | 80% | 100 nM |  | > 10000 nM |  |  |  | inactive
CN1C[C@H]2CNC(=O)c3cc(N4CCCCC4)ccc3[C@@H]2C1 (relative stereo) [Example 298, Trans-2-methyl-8-(piperidin-1-yl)-2,3,3a,4,5,10b-hexahydropyrrolo[3,4-d][2]benzazepin-6(1H)-one] |  |  |  |  | 400 nM | > 10000 nM | 80% | inactive
COc1cc(F)ccc1-c1ccc2c(c1)C(=O)NC[C@@H]1CN(C)C[C@@H]21 (relative stereo) [Example 299, Trans-8-(4-fluoro-2-methoxyphenyl)-2-methyl-2,3,3a,4,5,10b-hexahydropyrrolo[3,4-d][2]benzazepin-6(1H)-one] |  |  |  |  | 10 nM | > 10000 nM | 100% | inactive
COc1ccc(F)cc1-c1ccc2c(c1)C(=O)NC[C@@H]1CN(C)C[C@@H]21 (relative stereo) [Example 300, Trans-8-(5-fluoro-2-methoxyphenyl)-2-methyl-2,3,3a,4,5,10b-hexahydropyrrolo[3,4-d][2]benzazepin-6(1H)-one] |  |  |  |  | 50 nM | > 10000 nM | 100% | inactive
COc1ccc(C(C)C)cc1-c1ccc2c(c1)C(=O)NC[C@@H]1CN(C)C[C@@H]21 (relative stereo) [Example 301, Trans-8-(5-isopropyl-2-methoxyphenyl)-2-methyl-2,3,3a,4,5,10b-hexahydropyrrolo[3,4-d][2]benzazepin-6(1H)-one] |  |  |  |  | 30 nM | > 10000 nM | 105% | inactive
COc1cc(C)ccc1-c1ccc2c(c1)C(=O)NC[C@@H]1CN(C)C[C@@H]21 (relative stereo) [Example 302, Trans-8-(2-methoxy-4-methylphenyl)-2-methyl-2,3,3a,4,5,10b-hexahydropyrrolo[3,4-d][2]benzazepin-6(1H)-one] |  |  |  |  | 70 nM | > 10000 nM | 95% | inactive
COc1ccc(-c2ccc3c(c2)C(=O)NC[C@@H]2CN(C)C[C@@H]32)c(OC)c1 (relative stereo) [Example 303, Trans-8-(2,4-dimethoxyphenyl)-2-methyl-2,3,3a,4,5,10b-hexahydropyrrolo[3,4-d][2]benzazepin-6(1H)-one] |  |  |  |  | 40 nM | > 10000 nM | 100% | inactive
CN1C[C@H]2CNC(=O)c3cc(/C=C/C4CC4)ccc3[C@@H]2C1 (relative stereo) [Example 305, Trans-8-[(E)-2-cyclopropylvinyl]-2-methyl-2,3,3a,4,5,10b-hexahydropyrrolo[3,4-d][2]benzazepin-6(1H)-one] | 90% | 6 nM |  | > 10000 nM |  |  |  | inactive
Cc1cc(-c2ccc3c(c2)C(=O)NC[C@@H]2CN(C)C[C@@H]32)ccc1F (relative stereo) [Example 314, Trans-8-(4-fluoro-3-methylphenyl)-2-methyl-2,3,3a,4,5,10b-hexahydropyrrolo[3,4-d][2]benzazepin-6(1H)-one] |  |  |  |  | 3 nM | > 10000 nM | 95% | inactive
COc1ccc(-c2ccc3c(c2)C(=O)NC[C@@H]2CN(C)C[C@@H]32)cc1C (relative stereo) [Example 315, Trans-8-(4-methoxy-3-methylphenyl)-2-methyl-2,3,3a,4,5,10b-hexahydropyrrolo[3,4-d][2]benzazepin-6(1H)-one] |  |  |  |  | 30 nM | > 10000 nM | 90% | inactive
COc1ccc(-c2ccc3c(c2)C(=O)NC[C@@H]2CN(C)C[C@@H]32)cc1F (relative stereo) [Example 316, Trans-8-(3-fluoro-4-methoxyphenyl)-2-methyl-2,3,3a,4,5,10b-hexahydropyrrolo[3,4-d][2]benzazepin-6(1H)-one] |  |  |  |  | 7 nM | > 10000 nM | 80% | inactive

Reference: patent publication US8846951B2 (AbbVie Inc., priority 2009, dated 2014)
